Patent US20140328929A1, “Method of Preventing Acute Graft-Versus-Host Disease using Oral Beclomethasone Dipropionate” (Soligenix, Inc., priority 2011, published 2014)
Entries after “also recorded” stand apart in the source; their conditions may differ.

Key:
[1] = cited from earlier work
[2] = system: gastrointestinal GVHD; conditions: oral BDP plus 10 day course of prednisone (1 mg/kg/day) with 7 day taper; grade II gastrointestinal GVHD; cited from earlier work
[3] = system: adrenal function; experiment: Cosyntropin stimulation test at approximately day 75 after transplantation; type: in vivo, human; conditions: 26 of the 30 participants tested in the BDP arm; no systemic glucocorticoid treatment; about day 75
[4] = system: acute GVHD; experiment: Double-blind, randomized placebo-controlled phase II study of prophylactic oral BDP: efficacy and exploratory analyses; type: in vivo, human
From the text: Patients who had allogeneic hematopoietic cell transplantation with marrow or growth factor-mobilized blood cells from HLA-A, -B, -C, -DRB1, and HLA-DQB1-allele matched or single-allele or antigen mismatched related or unrelated donors after a myeloablative conditioning regimen (>800 cGy total body irradiation [TBI] and cyclophosphamide or high-dose busulfan and cyclophosphamide) were eligible for this study. Patients who had transplantation with cord blood cells and those who were enrolled in studies that involved depletion of T cells from the graft or administration of T cell-depleting antibodies before transplantation were excluded. Patients with body weight <35 kg were also excluded because lower-dose formulations of the study drug were not available. All participants gave informed consent as documents with the use of forms approved by institutional review committees at the Fred Hutchinson Cancer Research Center and Hackensack University Medical Center.
(§1) All participants received a standard regimen of methotrexate and tacrolimus after transplantation as prophylaxis against acute GVHD.[10] Methotrexate was given at 15 mg/m^2 on day 1 after HCT and 10 mg/m^2 on days 3, 6 and 11. […] Administration of the study drug began at the start of the conditioning regimen and continued through day 75 after transplantation. Patients who were not able to ingest the study drug because of mucositis continued their participation in the study. […] Institutional standards were used for antibacterial and antifungal prophylaxis.
The primary pre specified endpoint of the study was development of acute GVHD with severity sufficient to require systemic immunosuppressive treatment on or before day 90 after transplantation such as: a) prednisone or its equivalent at a 1 mg/kg/day, b) systemic immunosuppressive agents other than those in the GVHD prophylactic regimen in lieu of high-dose glucocorticoids, or c) substitution of one calcineurin inhibitor for the other in the GVHD prophylactic regimen in order to treat overt GVHD. The following actions were not considered as an indication of acute GVHD with severity sufficient to require systemic immunosuppressive treatment: a) administration of high-dose glucocorticoids for indications other than acute GVHD, b) substitution of one calcineurin inhibitor for another in the GVHD prophylactic regimen in order to manage toxicity, c) increase in the dose of the calcineurin inhibitor originally prescribed for GVHD prophylaxis in order to suppress overt manifestations of acute GVHD. For purposes of the primary endpoint, extracorporeal photopheresis was considered as systemic immunosuppressive treatment, but administration of psoralen and UV irradiation was not.
In the assessment of the acute GVHD index score, parenteral nutrition was employed as a surrogate for oral caloric intake less than 40% of requirements.
For purposes of sample size estimation, we assumed that 60% of the participants in the placebo arm would require systemic glucocorticoid treatment for acute GVHD. […] Based on historical results from our center, we estimated a frequency of grade IIa GVHD at approximately 25%. […] An interim analysis was conducted after 69 patients were enrolled, with a plan to end the trial if the probability of rejecting the null hypothesis had been less than 33%. This criterion was not met, and the remaining patients were accrued as originally planned.
The primary endpoint was analyzed as a binomial outcome with differences evaluated by the unadjusted x^2 test with stratification according to donor type (related vs. unrelated) and pretransplant risk category (chronic myeloid leukemia in chronic phase, refractory anemia without excess blasts or other hematologic malignancy in remission vs. more advanced malignancy). Other endpoints were evaluated by x^2 test, Student's t-test, Wilcoxon rank sum test or log-rank test as appropriate, with no adjustment to the computed significance level to account for the interim analysis. […]

[5] = Same phase II study: assessment of safety (adverse outcomes, gastrointestinal adverse events, bacteremia, mucositis); type: in vivo
Procedure: as §1
The primary endpoint was analyzed as a binomial outcome with differences evaluated by the unadjusted x^2 test with stratification according to donor type (related vs. unrelated) and pretransplant risk category (chronic myeloid leukemia in chronic phase, refractory anemia without excess blasts or other hematologic malignancy in remission vs. more advanced malignancy). Other endpoints were evaluated by x^2 test, Student's t-test, Wilcoxon rank sum test or log-rank test as appropriate, with no adjustment to the computed significance level to account for the interim analysis. Results were analyzed with data available as of Sep. 15, 2010.
These included the hazards of cytomegalovirus and invasive yeast or mold infection, cGVHD, death without recurrent malignancy, recurrent malignancy, death from any cause, and the composite of death or recurrent malignancy. […] Other gastrointestinal adverse events occurred infrequently.
GVHD, bacteremia and recurrent malignancy were the most frequent serious adverse events. Other serious adverse events occurred at frequencies <5%. […] For this reason, we evaluated the distribution of all bacteremia episodes. Because participants took the study drug until day 75 after transplantation and then stopped, we included all bacteremia episodes that occurred before day 103. […] We observed a single episode of Enterococcus bacteremia among the 46 participants in the placebo arm, on day 15 after transplantation.
Time-to-first event analyses were used to evaluate the risks of bacteremia in the BDP arm compared to the placebo arm. Follow-up was censored at 103 days after HCT, 28 days after the end of study drug administration. The hazard ratios were 1.38 (95% CI 0.8-2.5) for any bacteremia, 1.32 (95% CI 0.7-2.5) for gram-positive bacteremia, and 5.24 (95% CI 0.7-41) for Enterococcus bacteremia.
For this reason, we evaluated the severity of mucositis in the two arms for the 118 patients who had evaluations by an oral medicine specialist on at least one occasion after transplantation at the FHCRC.

[6] = BDP >90% adherent group, N = 50
[7] = BDP patients with ≧90% adherence

## CCC(=O)OCC(=O)[C@@]1(OC(=O)CC)[C@@H](C)C[C@H]2[C@@H]3CCC4=CC(=O)C=C[C@]4(C)[C@@]3(Cl)[C@@H](O)C[C@@]21C [BDP, beclomethasone 17,21-dipropionate]
[1]
  Protein binding: protein-bound
[2]
  Efficacy for treatment of gastrointestinal GVHD in two previous randomized trials: more effective than prednisone alone; also recorded: effective
[3]
  Abnormal adrenal function: 87%
[4]; 50 BDP patients, 27 treated
  Systemic treatment for GVHD among BDP patients with ≧90% adherence: 54%
[4]; BDP 50-90% adherent, number 34
  Cumulative Prednisone Dose through Day 75 Post HCT: 2105 mg
  Mean of the Average Dose (prednisone) through Day 75 Post HCT: 28.7 mg
[4]; BDP <50% adherent, number 8
  Cumulative Prednisone Dose through Day 75 Post HCT: 2048 mg
  Mean of the Average Dose (prednisone) through Day 75 Post HCT: 29.2 mg
[4]; [6]
  Overall Mortality, N (%): 7 (14) N (%)
  Relapse, N (%): 9 (18) N (%)
[4]; BDP >90% adherent, number 50
  Cumulative Prednisone Dose through Day 75 Post HCT: 1145 mg
  Mean of the Average Dose (prednisone) through Day 75 Post HCT: 15.4 mg
[4]; BDP N = 50, >90% adherent
  BDP >90% adherent group requiring systemic treatment for acute GVHD before day 90, N (%): 27 (54) N (%)
[4]; BDP N = 92, Table 5
  Systemic treatment for acute GVHD before day 90, N (%) PRIMARY ENDPOINT: 62 (67) N (%)
[4]; BDP arm
  Gastrointestinal GVHD proven by biopsy, events: 44
  Secondary systemic treatment for GVHD, events: 8
  Topical treatment for acute GVHD, events: 58
[4]; BDP arm N = 92
  Average weekly gut morbidity score (SD): 0.63 (0.36)
  Average weekly gut morbidity score after day 21 (SD): 0.47 (0.48)
  Average weekly liver morbidity score (SD): 0.11 (0.31)
  Average weekly overall morbidity score, mean (SD): 1.22 (0.53)
  Average weekly skin morbidity score (SD): 0.30 (0.42)
  Peak GVHD grade 0-1, N (%): 31 (34) N (%)
  Peak GVHD grade IIa, N (%): 41 (45) N (%)
  Peak GVHD grade IIb-IV, N (%): 20 (22) N (%)
  Peak overall morbidity score, mean (SD): 2.54 (0.62)
[4]; BDP arm N = 92, Table 2
  Systemic treatment for acute GVHD before day 90, N (%): 60 (65) N (%)
[4]; BDP arm N = 92, for GVHD, not including steroid treatment for other indications
  Cumulative mg/kg prednisone-equivalent systemic glucocorticoid dose to day 75, mean (SD): 33.1 (23.3) mg/kg
[4]; BDP arm compared to placebo arm, 95% CI 0.6-1.4
  Systemic treatment for acute GVHD, HR: 0.92
[4]; BDP arm, 60 participants
  Participants given systemic glucocorticoid treatment for GVHD: 65%
[4]; BDP arm, peak OMI scores >20, seven of 36 participants
  Grades IIb-III GVHD: 19%
[4]; BDP arm, peak OMI scores ≦20, nine of 43 participants
  Grades IIb-III GVHD: 21%
[4]; BDP arm, 95% CI 1%-12%
  Cumulative incidence of grades III-IV GVHD: 7%
[4]; BDP arm, withdrawal or recurrent malignancy as competing event
  Systemic treatment for acute GVHD, events: 61
[4]; [7]
  Incidence of relapse: 18%
  Overall mortality: 14%
[4]; BDP vs placebo, 95% CI 0.2-1.9
  Secondary systemic treatment for GVHD, HR: 0.65
[4]; BDP vs placebo, 95% CI 0.6-1.4
  Topical treatment for acute GVHD, HR: 0.89
[4]; BDP vs placebo, 95% CI 0.7-2.2
  Gastrointestinal GVHD proven by biopsy, HR: 1.26
[4]; day 100 after transplantation, BDP arm, 95% CI 13%-30%
  Cumulative incidence of grades IIb-IV GVHD: 22%
[4]; day 100 after transplantation, BDP arm, 95% CI 57%-76%
  Cumulative incidence of grades IIa-IV GVHD: 66%
[5]; BDP arm
  Death from any cause, events: 22
  Death or recurrent malignancy, events: 29
  Death without recurrent malignancy, events: 10
[5]; BDP vs placebo, 95% CI 0.4-5.8
  Death without recurrent malignancy, HR: 1.60
[5]; BDP vs placebo, 95% CI 0.5-1.7
  Death or recurrent malignancy, HR: 0.93
[5]; BDP vs placebo, 95% CI 0.5-2.0
  Death from any cause, HR: 0.95
[5]; BDP, of the 61 participants (both arms) with total body irradiation
  Participants with Enterococcus bacteremia episodes among those who received total body irradiation: 9
[5]; BDP, of the 77 participants (both arms)
  Participants with Enterococcus bacteremia episodes among those who received busulfan and cyclophosphamide: 1
[5]; human, in vivo
  CMV viremia or disease, HR: 0.93
  CMV viremia or disease, events: 23
  Chronic GVHD requiring systemic treatment, HR: 1.05
  Chronic GVHD requiring systemic treatment, events: 31
  Colitis, N (%): 0 (0) N (%)
  Enteritis, N (%): 0 (0) N (%)
  Episodes of Enterococcus bacteremia: 12 episodes
  Episodes of Enterococcus bacteremia after day 57: 3 episodes
  Episodes of Enterococcus bacteremia before day 17 after transplantation: 9 episodes
  Episodes of gram-negative bacteremia: 15 episodes
  Esophagitis, N (%): 8 (9) N (%)
  GI hemorrhage, N (%): 2 (2) N (%)
  GI infection (any), N (%): 22 (24) N (%)
  GI infection: C. difficile, N (%): 16 (17) N (%)
  GI infection: CMV enteritis, N (%): 2 (2) N (%)
  GI infection: Other viral infection, N (%): 2 (2) N (%)
  GI infection: Other, N (%): 3 (3) N (%)
  GI infection: Yeast or mold, N (%): 0 (0) N (%)
  GI ulceration or erosion, N (%): 5 (5) N (%)
  Gastritis, N (%): 2 (2) N (%)
  Gastrointestinal ulceration or erosion diagnosed by endoscopy: 5 participants
  Ileus, N (%): 1 (0) N (%)
  Invasive yeast or mold infection, HR: 0.50
  Invasive yeast or mold infection, events: 1
  Number of serious adverse events related to bacteremia: 14
  Number of serious adverse events related to mucositis: 5
  Participants diagnosed with gastrointestinal infection: 24%
  Recurrent malignancy, HR: 0.77
  Recurrent malignancy, events: 19
  Typhlitis, N (%): 1 (1) N (%)
[5]; human, in vivo, po
  Oral infection, N (%): 3 (3) N (%)
[5]; of the 92 participants in the BDP arm, before day 103
  Participants with Enterococcus bacteremia: 10 participants
